Test results from the supplement of paper PMC10331698.
± gives the standard deviation of the averaged measurements.

Assays:
Test in all cases: level (log10 ratio to DMSO vehicle control); higher = higher biomarker level / cell amount than vehicle control
[1] = compound: FC(F)(F)C(F)(F)C(F)(F)CI [Heptafluorobutyl iodide]; settings: in DMSO
Procedure: (§1)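 BioMAP Diversity Plus panel of 12 human primary cell co-culture systems (3C, 4H, LPS, SAg, BT, BF4T, BE3C, CASM3C, HDF3CGF, KF3CT, MyoF, Mphg). Compounds were added 1 h before stimulation and left for 24 h (MyoF 48 h; BT 72 h for soluble read-outs or 6 d for IgG). Biomarkers were read by ELISA, cytotoxicity by SRB, PBMC viability and proliferation by Alamar Blue. Each well value was divided by the mean of 8 DMSO control wells on the same plate and log10 transformed; duplicate blinded samples were tested at 4 concentrations.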

[2] = compound: O=S(=O)(O)C(F)(F)C(F)(F)C(F)(F)C(F)(F)C(F)(F)C(F)(F)C(F)(F)C(F)(F)C(F)(F)C(F)(F)F [Sodium perfluorodecanesulfonate]; settings: in DMSO
Procedure: as §1

[3] = compound: O=C(O)C=CC(F)(C(F)(F)F)C(F)(F)F [3-(Perfluoroisopropyl)-2-propenoic acid]; settings: in DMSO
Procedure: as §1

[4] = compound: NC(=O)C(F)(F)C(F)(F)C(F)(F)C(F)(F)F [Nonafluoropentanamide]; settings: in DMSO
Procedure: as §1

[5] = compound: C=C(C)C(=O)OCCC(F)(F)C(F)(F)C(F)(F)C(F)(F)C(F)(F)C(F)(F)F [6:2 Fluorotelomer methacrylate]; settings: in DMSO
Procedure: as §1

[6] = compound: C=CC(=O)OCC(F)(F)C(F)(F)C(F)(F)COC(=O)C=C [1H,1H,5H,5H-Perfluoro-1,5-pentanediol diacrylate]; settings: 6700 nM; in DMSO
Procedure: as §1

[7] = compound: O=C(O)C(F)(F)C(F)(F)C(F)(F)C(F)(F)C(F)(F)C(F)(F)C(F)(F)C(F)(F)C(F)(F)C(F)F [11-H-Perfluoroundecanoic acid]; settings: in DMSO
Procedure: as §1

[8] = compound: OCC(F)(F)C(F)(F)C(F)(F)CO [Hexafluoroamylene glycol]; settings: in DMSO
Procedure: as §1

[9] = compound: O=S(=O)(O)CCC(F)(F)C(F)(F)C(F)(F)C(F)(F)C(F)(F)C(F)(F)F [6:2 Fluorotelomer sulfonic acid]; settings: in DMSO
Procedure: as §1

[10] = compound: NC(=O)C(F)(F)C(F)(F)C(F)(F)C(F)F; settings: in DMSO
Procedure: as §1

[11] = compound: FC(F)(F)C(F)(F)C(F)(F)C(F)(F)C(F)(F)C(F)(F)C(F)(F)I [1-Iodopentadecafluoroheptane]; settings: in DMSO
Procedure: as §1

[12] = compound: O=S(=O)(Cl)C(F)(F)C(F)(F)C(F)(F)C(F)(F)C(F)(F)C(F)(F)C(F)(F)C(F)(F)F [Perfluoro-1-octanesulfonyl chloride]; settings: in DMSO
Procedure: as §1

[13] = compound: NS(=O)(=O)C(F)(F)C(F)(F)C(F)(F)C(F)(F)C(F)(F)C(F)(F)F [Perfluorohexanesulfonamide]; settings: in DMSO
Procedure: as §1

[14] = compound: COC(=O)C(F)(F)C(F)(F)OC(F)(C(F)(F)F)C(F)(F)OC(F)=C(F)F [Methyl perfluoro(3-(1-ethenyloxypropan-2-yloxy)propanoate)]; settings: in DMSO
Procedure: as §1

[15] = compound: FC(F)(F)C(F)(F)CNCC(F)(F)C(F)(F)F [Bis(1H,1H-perfluoropropyl)amine]; settings: in DMSO
Procedure: as §1

[16] = compound: NC(=O)C(F)(F)C(F)(F)C(F)(F)C(F)(F)C(N)=O [Octafluoroadipamide]; settings: in DMSO
Procedure: as §1

[17] = compound: FC(F)(F)C(F)(F)C(F)(F)CC1CO1 [1H,1H-Heptafluorobutyl epoxide]; settings: in DMSO
Procedure: as §1

[18] = compound: O=S(=O)(F)C(F)(F)C(F)(F)C(F)(F)C(F)(F)C(F)(F)C(F)(F)C(F)(F)C(F)(F)F [Perfluorooctanesulfonyl fluoride]; settings: in DMSO
Procedure: as §1

[19] = compound: FC(F)(F)C(F)(F)C(F)(F)C(F)(F)C(F)(F)C(F)(F)CC1CO1 [3-(Perfluorohexyl)-1,2-epoxypropane]; settings: in DMSO
Procedure: as §1

## 3C:CD106/VCAM-1
[1]; 6700 nM
  level (log10): -0.0115 ± 0.00071
[1]; 20000 nM
  level (log10): -0.0045 ± 0.028
[1]; 60000 nM
  level (log10): -0.0045 ± 0.0078
[2]; 1500 nM
  level (log10): -0.0035 ± 0.0035
[2]; 4400 nM
  level (log10): 0.0055 ± 0.011
[2]; 13000 nM
  level (log10): -0.016 ± 0.013
[2]; 40000 nM
  level (log10): 0.0065 ± 0.0078
[3]; 6700 nM
  level (log10): -0.002 ± 0.03
[3]; 20000 nM
  level (log10): -0.039 ± 0.037
[3]; 60000 nM
  level (log10): -0.0205 ± 0.00071
[4]; 6700 nM
  level (log10): -0.024 ± 0.028
[4]; 20000 nM
  level (log10): -0.0135 ± 0.039
[4]; 60000 nM
  level (log10): -0.016 ± 0.0071
[5]; 6700 nM
  level (log10): -0.0265 ± 0.026
[5]; 20000 nM
  level (log10): -0.029 ± 0.037
[5]; 60000 nM
  level (log10): -0.0185 ± 0.043
[6]
  level (log10): -0.179 ± 0.025
[7]; 6700 nM
  level (log10): -0.0105 ± 0.023
[7]; 20000 nM
  level (log10): -0.011 ± 0.0099
[8]; 6700 nM
  level (log10): -0.0205 ± 0.013
[8]; 20000 nM
  level (log10): -0.031 ± 0.011
[8]; 60000 nM
  level (log10): -0.0065 ± 0.0092
[9]; 6700 nM
  level (log10): -0.019 ± 0.0071
[9]; 20000 nM
  level (log10): -0.035
[9]; 60000 nM
  level (log10): -0.014 ± 0.013
[10]; 6700 nM
  level (log10): -0.001 ± 0.024
[10]; 20000 nM
  level (log10): 0.0135 ± 0.0021
[10]; 60000 nM
  level (log10): 0.007 ± 0.016
[11]; 6700 nM
  level (log10): -0.0165 ± 0.016
[11]; 20000 nM
  level (log10): -0.005 ± 0.011
[12]; 6700 nM
  level (log10): 0.008 ± 0.013
[12]; 20000 nM
  level (log10): 0.028 ± 0.0099
[12]; 60000 nM
  level (log10): 0.0325 ± 0.013
[13]; 6700 nM
  level (log10): -0.008 ± 0.0014
[13]; 20000 nM
  level (log10): -0.0125 ± 0.0092
[13]; 60000 nM
  level (log10): -0.025 ± 0.016
[14]; 6700 nM
  level (log10): -0.016 ± 0.0057
[14]; 20000 nM
  level (log10): -0.0235 ± 0.015
[15]; 6700 nM
  level (log10): -0.016 ± 0.027
[15]; 20000 nM
  level (log10): -0.027 ± 0.037
[15]; 60000 nM
  level (log10): -0.0025 ± 0.03
[16]; 6700 nM
  level (log10): -0.0215 ± 0.08
[16]; 20000 nM
  level (log10): -0.02 ± 0.055
[16]; 60000 nM
  level (log10): 0.0005 ± 0.079
[17]; 6700 nM
  level (log10): -0.0315 ± 0.023
[17]; 20000 nM
  level (log10): -0.0385 ± 0.013
[17]; 60000 nM
  level (log10): -0.012 ± 0.011
[18]; 6700 nM
  level (log10): -0.009 ± 0.0099
[18]; 20000 nM
  level (log10): -0.003 ± 0.013
[18]; 60000 nM
  level (log10): -0.01 ± 0.023
[19]; 6700 nM
  level (log10): -0.0145 ± 0.018
[19]; 20000 nM
  level (log10): -0.033 ± 0.025
[19]; 60000 nM
  level (log10): -0.0395 ± 0.011

## 3C:CD141/Thrombomodulin
[1]; 6700 nM
  level (log10): -0.0335 ± 0.04
[1]; 20000 nM
  level (log10): -0.0305 ± 0.005
[1]; 60000 nM
  level (log10): -0.025 ± 0.014
[2]; 1500 nM
  level (log10): -0.015 ± 0.031
[2]; 4400 nM
  level (log10): -0.052 ± 0.013
[2]; 13000 nM
  level (log10): -0.0325 ± 0.019
[2]; 40000 nM
  level (log10): -0.0565 ± 0.0035
[3]; 6700 nM
  level (log10): -0.0125 ± 0.023
[3]; 20000 nM
  level (log10): -0.006 ± 0.0057
[3]; 60000 nM
  level (log10): 0.0045 ± 0.016
[4]; 6700 nM
  level (log10): -0.0635 ± 0.074
[4]; 20000 nM
  level (log10): -0.0235 ± 0.0035
[4]; 60000 nM
  level (log10): -0.069 ± 0.051
[5]; 6700 nM
  level (log10): -0.0155 ± 0.042
[5]; 20000 nM
  level (log10): -0.014 ± 0.048
[5]; 60000 nM
  level (log10): -0.072 ± 0.014
[6]
  level (log10): -0.124 ± 0.013
[7]; 6700 nM
  level (log10): -0.0065 ± 0.005
[7]; 20000 nM
  level (log10): -0.0255 ± 0.033
[8]; 6700 nM
  level (log10): 0.0175 ± 0.052
[8]; 20000 nM
  level (log10): -0.01 ± 0.033
[8]; 60000 nM
  level (log10): -0.011 ± 0.088
[9]; 6700 nM
  level (log10): -0.0065 ± 0.05
[9]; 20000 nM
  level (log10): -0.0475 ± 0.019
[9]; 60000 nM
  level (log10): -0.0415 ± 0.033
[10]; 6700 nM
  level (log10): -0.0285 ± 0.074
[10]; 20000 nM
  level (log10): 0 ± 0.03
[10]; 60000 nM
  level (log10): -0.0075 ± 0.026
[11]; 6700 nM
  level (log10): -0.0215 ± 0.071
[11]; 20000 nM
  level (log10): -0.008 ± 0.081
[12]; 6700 nM
  level (log10): 0.012 ± 0.025
[12]; 20000 nM
  level (log10): 0.0215 ± 0.016
[12]; 60000 nM
  level (log10): 0.186 ± 0.0021
[13]; 6700 nM
  level (log10): -0.04 ± 0.023
[13]; 20000 nM
  level (log10): -0.045 ± 0.02
[13]; 60000 nM
  level (log10): 0.0135 ± 0.033
[14]; 6700 nM
  level (log10): -0.036 ± 0.02
[14]; 20000 nM
  level (log10): -0.028 ± 0.034
[15]; 6700 nM
  level (log10): 0.0205 ± 0.043
[15]; 20000 nM
  level (log10): 0.0255 ± 0.04
[15]; 60000 nM
  level (log10): 0.046 ± 0.058
[16]; 6700 nM
  level (log10): 0.0505 ± 0.044
[16]; 20000 nM
  level (log10): 0.048 ± 0.02
[16]; 60000 nM
  level (log10): 0.064 ± 0.0099
[17]; 6700 nM
  level (log10): 0.0125 ± 0.053
[17]; 20000 nM
  level (log10): -0.034 ± 0.04
[17]; 60000 nM
  level (log10): -0.0575 ± 0.08
[18]; 6700 nM
  level (log10): -0.021 ± 0.0099
[18]; 20000 nM
  level (log10): -0.0235 ± 0.026
[18]; 60000 nM
  level (log10): -0.0245 ± 0.028
[19]; 6700 nM
  level (log10): -0.0025 ± 0.028
[19]; 20000 nM
  level (log10): -0.0095 ± 0.00071
[19]; 60000 nM
  level (log10): -0.0075 ± 0.0035
